The text below walks through data of patent US12084436B2, “Heterocyclic compound” (Takeda Pharmaceutical Company Limited, priority 2019, dated 2024).

One experiment concerns the target T1, HDAC6 enzyme (Homo sapiens, UniProt Q9UBN7).
T1 construct: prepared by transducing full length HDAC6 gene into Sf-9 insect cells; GST; purchased SignalChem; host or cells: Sf-9 insect cells
T1 sequence (Q9UBN7 1-1215): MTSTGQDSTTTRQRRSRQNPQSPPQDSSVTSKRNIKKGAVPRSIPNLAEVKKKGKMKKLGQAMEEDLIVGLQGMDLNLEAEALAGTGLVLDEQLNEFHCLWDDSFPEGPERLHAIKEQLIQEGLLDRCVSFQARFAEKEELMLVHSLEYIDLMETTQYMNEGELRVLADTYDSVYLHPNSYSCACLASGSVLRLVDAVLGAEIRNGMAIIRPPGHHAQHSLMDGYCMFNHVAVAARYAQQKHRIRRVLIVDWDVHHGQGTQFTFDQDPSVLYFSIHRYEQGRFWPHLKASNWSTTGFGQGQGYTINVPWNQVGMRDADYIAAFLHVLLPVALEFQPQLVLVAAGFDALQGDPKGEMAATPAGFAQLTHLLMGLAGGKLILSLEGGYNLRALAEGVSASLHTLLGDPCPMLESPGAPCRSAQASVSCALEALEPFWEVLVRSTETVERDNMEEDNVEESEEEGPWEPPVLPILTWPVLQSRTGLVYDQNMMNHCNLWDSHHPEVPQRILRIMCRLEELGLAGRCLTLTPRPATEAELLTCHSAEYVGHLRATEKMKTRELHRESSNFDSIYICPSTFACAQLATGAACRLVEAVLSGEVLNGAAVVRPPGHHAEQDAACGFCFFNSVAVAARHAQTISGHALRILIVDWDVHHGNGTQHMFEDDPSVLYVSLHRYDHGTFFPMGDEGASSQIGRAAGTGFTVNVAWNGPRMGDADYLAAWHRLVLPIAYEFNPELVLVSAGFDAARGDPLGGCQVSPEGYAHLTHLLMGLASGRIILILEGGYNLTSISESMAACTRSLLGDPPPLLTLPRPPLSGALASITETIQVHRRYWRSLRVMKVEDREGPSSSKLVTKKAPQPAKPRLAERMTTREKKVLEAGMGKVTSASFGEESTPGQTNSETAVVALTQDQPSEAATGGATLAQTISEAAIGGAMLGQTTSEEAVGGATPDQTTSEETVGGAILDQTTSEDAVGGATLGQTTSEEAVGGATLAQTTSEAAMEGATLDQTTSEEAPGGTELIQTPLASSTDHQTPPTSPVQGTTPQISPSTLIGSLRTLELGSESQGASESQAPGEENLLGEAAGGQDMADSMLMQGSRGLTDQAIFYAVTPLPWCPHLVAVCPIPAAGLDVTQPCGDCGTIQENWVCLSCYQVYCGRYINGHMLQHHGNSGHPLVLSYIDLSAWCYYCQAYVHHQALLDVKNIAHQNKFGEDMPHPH
Nature of the experiment: HDAC6 enzyme inhibitory assay (HDAC-Glo I/II Assay kit, luminescence). Format: biochemical. The conditions noted are these: 10 μM test compound; wells without enzyme = 100% inhibition; 10 µM. An outline of the steps: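 Full-length human HDAC6, GST-purified from Sf-9 cells, was preincubated with compound for 60 min at room temperature in Tris-HCl pH 7.5 buffer with glutathione and Tween-20. Substrate-developer was then added, and luminescence was read after 20 min at room temperature. Inhibition was expressed relative to no-enzyme wells, taken as 100% inhibition.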
As for `CN1C(=O)c2cc(-c3nnc(C(F)F)o3)ccc2OC1(C)c1ccc(F)cc1` (single isomer, unassigned; isomer 2) [Example 9b, 6-[5-(difluoromethyl)-1,3,4-oxadiazol-2-yl]-2-(4-fluorophenyl)-2,3-dimethyl-2,3-dihydro-4H-1,3-benzoxazin-4-one (optical isomer 2)], the “HDAC6 inhibitory rate (%) (10 μM)” value stood at 96%.

The same experiment, now with this note: 10 μM test compound; wells without enzyme = 100% inhibition; read-out: HDAC6 inhibitory rate (%) (10 μM).
For `COc1cccc(Cn2ccnc2-c2cc(-c3nnc(C(F)F)o3)ccn2)c1` [Example 81a, 4-[5-(difluoromethyl)-1,3,4-oxadiazol-2-yl]-2-{1-[(3-methoxyphenyl)methyl]-1H-imidazol-2-yl}pyridine], the inhibition at 10 µM came out at 101%.
For the compound `N#Cc1cccc(Cn2ccnc2-c2cc(-c3nnc(C(F)F)o3)ccn2)c1` [Example 72a, 3-[(2-{4-[5-(difluoromethyl)-1,3,4-oxadiazol-2-yl]pyridin-2-yl}-1H-imidazol-1-yl)methyl]benzonitrile], the inhibition at 10 µM was 100%.
Consider `COC(=O)c1ccccc1CN(C)N1Cc2ccc(-c3nnc(C(F)F)o3)cc2C1=O` [Example 44c, methyl 2-{[{6-[5-(difluoromethyl)-1,3,4-oxadiazol-2-yl]-1-oxo-1,3-dihydro-2H-isoindol-2-yl}(methyl)amino]methyl}benzoate], for which the inhibition at 10 µM came to 102%.
Take `O=C1c2cc(-c3nnc(C(F)F)o3)ccc2CN1NCC(F)(F)F` [Example 31c, 6-[5-(difluoromethyl)-1,3,4-oxadiazol-2-yl]-2-[(2,2,2-trifluoroethyl)amino]-2,3-dihydro-1H-isoindol-1-one]: the inhibition at 10 µM amounted to 90%.
On the same count and under the same terms, under `Fc1cc(-c2nnc(C(F)F)o2)cc(-c2nccn2Cc2ccccn2)c1` [Example 6a] stands 99%; under `Cn1cc(Cn2ccnc2-c2cc(F)cc(-c3nnc(C(F)F)o3)c2)cn1` [Example 59a, 2-(difluoromethyl)-5-(3-fluoro-5-{1-[(1-methyl-1H-pyrazol-4-yl)methyl]-1H-imidazol-2-yl}phenyl)-1,3,4-oxadiazole], 99%.
As for `Cc1nnc(Cn2ccnc2-c2cc(F)cc(-c3nnc(C(F)F)o3)c2)o1` [Example 54a, 2-(difluoromethyl)-5-(3-fluoro-5-{1-[(5-methyl-1,3,4-oxadiazol-2-yl)methyl]-1H-imidazol-2-yl}phenyl)-1,3,4-oxadiazole], the inhibition at 10 µM came to 89%.
On the same count and under the same terms, under `O=C1NN(c2ccc(F)c(Cl)c2)Cc2ccc(-c3nnc(C(F)F)o3)cc21` [Example 31b, 3-(3-chloro-4-fluorophenyl)-7-[5-(difluoromethyl)-1,3,4-oxadiazol-2-yl]-3,4-dihydrophthalazin-1(2H)-one] stands 100%; under `COCCn1ccnc1-c1cc(F)cc(-c2nnc(C(F)F)o2)c1` [Example 27a], 95%.
`Cc1cc(COc2cccnc2-c2cc(F)cc(-c3nnc(C(F)F)o3)c2)nn1C` [Example 10a, 2-(3-[5-(difluoromethyl)-1,3,4-oxadiazol-2-yl]-5-fluorophenyl}-3-[(1,5-dimethyl-1H-pyrazol-3-yl)methoxy]pyridine]: the inhibition at 10 µM was found to be 96%.
Regarding `Fc1cc(-c2nnc(C(F)F)o2)cc(-c2nccn2Cc2ccc(F)c(F)c2)c1` [Example 45a, 2-(difluoromethyl)-5-(3-{1-[(3,4-difluorophenyl)methyl]-1H-imidazol-2-yl}-5-fluorophenyl)-1,3,4-oxadiazole], the inhibition at 10 µM came out at 100%.
Consider `CNC(=O)c1ccc(Cn2ccnc2-c2cc(F)cc(-c3nnc(C(F)F)o3)c2)cc1F` [Example 34a, 4-[(2-{3-[5-(difluoromethyl)-1,3,4-oxadiazol-2-yl]-5-fluorophenyl}-1H-imidazol-1-yl)methyl]-2-fluoro-N-methylbenzamide], for which the inhibition at 10 µM was 98%.
As for `CN(CC1CC(F)(F)C1)N1Cc2ccc(-c3nnc(C(F)F)o3)cc2C1=O` [Example 64c, 2-{[(3,3-difluorocyclobutyl)methyl] (methyl)amino}-6-[5-(difluoromethyl)-1,3,4-oxadiazol-2-yl]-2,3-dihydro-1H-isoindol-1-one], the inhibition at 10 µM turned out to be 99%.
For the compound `Fc1cccc(Cn2ncnc2-c2cc(-c3nnc(C(F)F)o3)ccn2)c1` [Example 85a, 4-[5-(difluoromethyl)-1,3,4-oxadiazol-2-yl]-2-{1-[(3-fluorophenyl)methyl]-1H-1,2,4-triazol-5-yl}pyridine], the inhibition at 10 µM came to 101%.
`CN(C(=O)OC(C)(C)C)N1Cc2ncc(-c3nnc(C(F)F)o3)cc2C1=O` [Example 68c, tert-butyl {3-[5-(difluoromethyl)-1,3,4-oxadiazol-2-yl]-5-oxo-5,7-dihydro-6H-pyrrolo[3,4-b]pyridin-6-yl}methylcarbamate]: the inhibition at 10 µM amounted to 99%.
For the compound `O=C1NN(c2ccc(F)cc2)Cc2ncc(-c3nnc(C(F)F)o3)cc21` [Example 3b, 3-[5-(difluoromethyl)-1,3,4-oxadiazol-2-yl]-7-(4-fluorophenyl)-7,8-dihydropyrido[2,3-d]pyridazin-5(6H)-one], the inhibition at 10 µM turned out to be 101%.
Take `FC(F)c1nnc(-c2ccnc(-n3ncc4c3C(c3ccccc3)CCC4)c2)o1` (stereo not shown) [Example 77a]: the inhibition at 10 µM came to 99%.
Regarding `Cc1cc(Cn2ccnc2-c2cc(F)cc(-c3nnc(C(F)F)o3)c2)no1` [Example 61a, 2-(difluoromethyl)-5-(3-fluoro-5-{1-[(5-methyl-1,2-oxazol-3-yl)methyl]-1H-imidazol-2-yl}phenyl)-1,3,4-oxadiazole], the inhibition at 10 µM is 98%.
Take `O=C1NN(C2CCC(F)(F)CC2)Cc2ccc(-c3nnc(C(F)F)o3)cc21` [Example 29b, 3-(4,4-difluorocyclohexyl)-7-[5-(difluoromethyl)-1,3,4-oxadiazol-2-yl]-3,4-dihydrophthalazin-1(2H)-one]: the inhibition at 10 µM is 99%.
Regarding `Fc1cc(-c2nnc(C(F)F)o2)cc(-c2nccn2Cc2ccccc2)c1` [Example 4a, 2-[3-(1-benzyl-1H-imidazol-2-yl)-5-fluorophenyl]-5-(difluoromethyl)-1,3,4-oxadiazole], the inhibition at 10 µM came out at 99%.
Same read-out and setting: for `Cn1ccc(OC2CCOCC2)c(-c2cc(F)cc(-c3nnc(C(F)F)o3)c2)c1=O` [Example 53a, 3-{3-[5-(difluoromethyl)-1,3,4-oxadiazol-2-yl]-5-fluorophenyl}-1-methyl-4-[(oxan-4-yl)oxy]pyridin-2(1H)-one] the value was 100%; for `N#Cc1cnc(-c2cc(-c3nnc(C(F)F)o3)ccn2)n1Cc1cccc(F)c1` [Example 82a, 2-{4-[5-(difluoromethyl)-1,3,4-oxadiazol-2-yl]pyridin-2-yl}-1-[(3-fluorophenyl)methyl]-1H-imidazole-5-carbonitrile], 99%; for `CN1C(=O)c2cc(-c3nnc(C(F)F)o3)ccc2OC1(C)c1ccc(Cl)cc1` (stereo not shown) [Example 26b, 2-(4-chlorophenyl)-6-[5-(difluoromethyl)-1,3,4-oxadiazol-2-yl]-2,3-dimethyl-2,3-dihydro-4H-1,3-benzoxazin-4-one], 100%.
In the case of `CN1C(=O)c2cc(-c3nnc(C(F)F)o3)ccc2OC1(C)c1ccc(C(F)(F)F)cc1` (stereo not shown) [Example 17b, 6-[5-(difluoromethyl)-1,3,4-oxadiazol-2-yl]-2,3-dimethyl-2-[4-(trifluoromethyl)phenyl]-2,3-dihydro-4H-1,3-benzoxazin-4-one], the inhibition at 10 µM came to 100%.
